Results as given in US20240307545A1, “CONJUGATE OF SAPONIN, OLIGONUCLEOTIDE AND GALNAC” (priority 2021, published 2024).
Read-outs that look alike come from different tables or passages of the source. [BNANC] = BNA^NC bridged nucleic acid nucleotide; {ThiolC6} = thiol C6 linker; d = 2'-deoxy (DNA)

What was measured:
[1] = Endosomal escape enhancing activity of saponin; conditions: compared with SO1861
[2] = test system: apoB; test: apoB mRNA expression in primary human hepatocytes (qPCR); format: cell-based; conditions: for IC50: primary human hepatocytes, read-out: IC50 apoB RNA levels
Protocol: (§1) Cryopreserved primary human hepatocytes (Cytes Biotechnologies S.L., Spain) were thawed in hepatocyte thawing media (Cytes Biotechnologies S.L., Spain). […] Cells were pre-cultured for 4-6 hrs at 37° C. allowing for cell attachment to cell culture plates before the start of treatment. Plating medium was replaced by 315 μl or 108 μl maintenance media (Cytes Biotechnologies S.L., Spain), after which conjugates were added from a 10× concentrated stock solution in PBS. Plates were incubated for 72 hr at 37° C. being harvested for gene expression and cell viability analysis.
as §1

[3] = test system: apoB; test: ApoB expression analysis in liver tissue of C57BL/6J mice (qRT-PCR); format: in vivo; conditions: for reduction of apoB RNA levels (gene expression) in liver compared to vehicle / reduction of apoB expression in liver compared to vehicle: Study A; for reduction of apoB RNA levels (gene expression) in liver compared to vehicle: 24 hrs
Protocol: (§2) • i. Dose administration and in-life phase. Per group, 8 C57BL/6J male mice for treatment groups (in Study A, 14 mice in vehicle control group), approximately 6-7 weeks at arrival and 8-9 weeks at dosing, were dosed. The compounds, formulated in PBS or PBS alone (vehicle) according to Table A5 and Table A6, were dosed at 5 ml/kg in the tail vain (intravenously, i.v.), with dose volumes corresponding to the individual bodyweights. Where applicable, trivalent (GalNAc)3-SO1861 (EMCH) was co-administered at 5 ml/kg in the tail vain (i.v.) right after the trivalent GalNAc-ApoB conjugate. Animals were weighed weekly and clinical observations were performed 2-3 times daily within the first 48 hrs, and at least once daily thereafter until study end. • ii. Sampling of serum, liver, and kidney tissue. […] At the relevant inter-study post-dose timepoints, 3 animals per timepoint per treatment group (6 animals in the vehicle control group in Study A) were sacrificed to collect terminal bleeds and collect relevant organs, such as liver and kidney tissues for further analyses. at end of study, the remaining 2 animals (4 in the control group in Study A) per group were sacrificed. One half of the liver and one kidney was frozen and used for tissue RNA analysis.
The mRNA was isolated from frozen liver tissue using TRIzol® Reagent (Thermo Scientific) according to the manufacturer's instruction. Conversion into cDNA was performed using iScript™ cDNA Synthesis Kit (BioRad). ApoB expression levels and levels of specific liver housekeeping genes were determined using quantitative real-time PCR assays (qRT-PCR) using iTaq™ Universal SYBR® Green Supermix (BioRad) and the Light Cycler 480 (Roche Diagnostics, Rotkreuz, Switzerland) with specific DNA primers, listed in Table A4 (Study A) and Table A7 (Study B), respectively. Analysis was done by the ΔCt method to determine apoB expression relative to 2 liver-specific housekeeping control mRNAs. Each analysis reaction was performed in triplicate.

[4] = test system: LDL-cholesterol; test: Serum LDL-cholesterol (LDL-C) analysis in C57BL/6J mice; format: in vivo
Protocol: as §2
LDL-cholesterol was measured in mouse serum, using an LDL-cholesterol specific two-step AU480 assay kit, respectively, from Beckman Coulter, with a photometric measurement according to the manufacturer's instructions.

[5] = In vivo tolerability (clinical observations, body weight) in C57BL/6J mice; conditions: Study A; doses and regimens of Table A5, i.v.
Protocol: as §2

[6] = test system: apoB; test: apoB gene silencing in Huh7 cells (qPCR); format: cell-based, human; conditions: hepatocytes with very low ASGPR1 expression (Huh7)
Protocol: Primary hepatocytes which highly express ASGPR1 (ASGPR1^high) and Huh7 hepatocyte cell line (low ASGPR1 expression) were treated with a concentration range of trivalent-GalNAc-ApoBBNA (TrivalentGalNAc-ApoBBNA), either in absence or presence of 300 nM trivalent-GalNAc-SO1861 (TrivalentGalNAc-SPT001) (FIGS. 20A and B).
In addition, the primary hepatocytes and the liver cells of cell line Huh7 were contacted with a concentration series of a saponin-oligonucleotide-ASGPR ligand conjugate, i.e. trivalent GalNAc conjugated with both SO1861 (DAR is 4, in a dendron with four SO1861 molecules) and ApoB BNA (SEQ ID NO: 2) ((GalNAc)3-dSPT4-ApoB (FIG. 20E), or TrivalentGalNAc-ApoBBNA-dendron(SO1861)4), and apoB mRNA expression was assessed (FIGS. 20A and B).
ApoB gene silencing in HepG2 (ASGPR1+) cells or Huh7 (ASGPR1^+/−) was determined.
RNA from cells was isolated and analysed according to standard protocols (Biorad). qPCR primers that were used are indicated in Table A2.
RNA from cells was isolated using TRI Reagent® Solution (Thermo Scientific) according to the manufacturer's instruction. Conversion into cDNA was performed using iScript™ cDNA Synthesis Kit (BioRad) using standard protocols. […]

CC(=O)OC1C(C)OC(OC2C(C)OC(OC(=O)[C@]34CCC(C)(C)CC3C3=CCC5[C@@]6(C)CC[C@H](OC7OC(C(=O)O)C(O)C(OC8OCC(O)C(O)C8O)C7OC7OC(CO)C(O)C(O)C7O)[C@@](C)(C=O)C6CC[C@@]5(C)[C@]3(C)C[C@H]4O)C(OC3OC(C)C(OC4OCC(O)C(OC5OCC(O)C(O)C5O)C4O)C(O)C3O)C2O)C(O)C1OC1OCC(O)C(O)C1O (some centres unmarked) [SO1832]
endosomal escape enhancing activity towards an oligonucleotide (or protein toxin) in the endosome [1]: about equally active as SO1861

ApoB#02 BNA: BNA^NC antisense oligonucleotide 5′-GCattggtatTCA-3′ [SEQ ID NO: 12], fully phosphorothioated, 5′-Thiol C6 linker (GCATTGGTATTCA; sugars from the 5' end [BNANC]2 d8 [BNANC]3, all phosphorothioate, 5' {ThiolC6}, methylation of C not given here)
IC50 ([2]; relative ApoB#02 BNA concentration, without transfection agent): 400 nM
IC50 ([2]; transfection with RNAi-MAX): 8 nM
reduction of apoB RNA levels (gene expression) in liver compared to vehicle ([3]; 0.1 mg/kg i.v.): not noticeably reduced
reduction of apoB RNA levels (gene expression) in liver compared to vehicle ([3]; 1 mg/kg i.v.): ~15%
reduction of apoB RNA levels (gene expression) in liver compared to vehicle ([3]; 2 mg/kg i.v.): ~21%
reduction of apoB expression in liver compared to vehicle ([3]; 2 mg/kg, 72 hrs): 39%
reduction of apoB expression in liver compared to vehicle ([3]; 2 mg/kg, 336 hrs): 30%
apoB RNA levels (gene expression) in liver, % of vehicle control ([3]; Study B, 2 mg/kg, 72 hrs): 53%
reduction of serum LDL-C compared to vehicle ([4]; Study A, 2 mg/kg, 72 hrs): ~50%
reduction of serum LDL-C compared to vehicle ([4]; Study A, 2 mg/kg, 336 hrs): ~40%
serum LDL-C levels compared to vehicle (in words) ([4]; Study A, 0.1, 1, or 2 mg/kg, 24 hrs): not noticeably reduced
serum LDL-C level ([4]; Study B, 2 mg/kg, 72 hrs post-dose): 2 mg/dL
tolerability (adverse findings, clinical observations) [5]: well tolerated

TrivalentGalNAc-ApoBBNA: conjugate of trivalent GalNAc and the ApoB antisense BNA oligonucleotide ApoBBNA (SEQ ID NO: 2); L or S linker not stated (GCCTCAGTCTGCTTCGCACC; BNA oligonucleotide conjugated to trivalent GalNAc, pattern not explicitly stated, further chemistry not given here)
response: apoB mRNA silencing ([6]; low nM + trivalentGalNAc-SPT001): not responsive

(GalNAc)3-dSPT4-ApoB: trivalent GalNAc conjugated with a dendron with four SO1861 moieties and ApoB BNA (SEQ ID NO: 2) via trifunctional linker (GCCTCAGTCTGCTTCGCACC; BNA oligo conjugated to trivalent GalNAc and dendron of four SO1861 saponins, further chemistry not given here)
response: apoB mRNA silencing ([6]; low nM, conjugate alone): not responsive
apoB gene (mRNA) silencing potency, factor higher than the GalNAc-ApoB BNA conjugate lacking covalently linked saponin ([2]; primary hepatocytes, concentration series): ~100
